Reference: US12428408B2, “Fused heterocyclic mescaline derivatives” (Enveric Biosciences Canada Inc., priority 2022, dated 2025)

Assays:
[1] = tested on: Human NT2/D1 precursor cells (NT2/D1); assay: Neuroplastogenicity assay using human model (NT2) neurons; assay type: cell-based; conditions: RA-treated NT2 cells, 1 μM, 48 hours, vs 0.1% DMSO
Experimental: The compound with formula A(XXXII) was assayed for neuroplastogenic potential using the following procedure. Human NT2/D1 precursor cells (NT2/D1) were purchased from the American Type Culture Collection (ATCC, Manassas, VA, USA). The neuronal differentiation was carried out as previously described (Roloff et al., 2015, PLOS ONE e0118536:1-14; Roloff et al., 2013, BMC Neuroscience 14:141-155) with minor modifications. First, NT2/D1 cells were seeded in T-25 suspension culture flasks (REF #690190, Greiner bio-one, Germany). Each flask contained a minimum of 5×10^6 cells in 10 ml of DMEM/F12 supplemented with 10% fetal bovine serum (FBS), 1% penicillin and streptomycin and 10 μM retinoic acid (RA medium) to start neuronal differentiation. The cells were cultured for 3 days in free floating medium. At the end of the incubation, cells were trypsinized and collected by centrifugation, mechanically dispersed, and counted. Counted cells were seeded on Poly D-Lysine (PDL) coated cover slips (12 mm; diameter round, Fisher Scientific; GG-12-PDL) containing minimum of 0.1×10^5 cells in culture medium without RA. The next day, culture medium was replaced with RA medium containing 2% of FBS. These cells were cultured for 5 days, with a change of RA medium two days later. For the neuronal outgrowth assay, after cells had successfully attached and established under coverslips, the RA medium was replaced with one of the following: (1) test molecules at one of two different concentrations (10 μm or 1 μm); (2) positive control ROCK inhibitor Y-27632, (Dihydrochloride, Sigma-Aldrich); (2) positive control ibuprofen (14883-1G; Sigma-Aldrich), or (4) negative control culture medium containing 2% of FBS. Cells under these conditions were incubated for 48 hours under standard conditions (37° C., 5% CO2) in an incubator prior to the immunofluorescent assay.
For the immunofluorescent assay, the treated cells housed under coverslips were collected after 48 hours of drug treatments. These coverslips washed with calcium chloride-free and magnesium chloride-free phosphate buffered saline (PBS) pH 7.4 (Gibco, #70011-044) and fixed using paraformaldehyde (PFA) 4% in PBS (#J61899, thermoscientific) for 15 min at room temperature (RT) and washed three times with 0.01% of Triton-X100 in PBS (PBST) to remove remaining PFA and to permeabilize the cells. Unspecific binding sites were blocked with 5% Bovine Serum Albumin (BSA) solution (#9048-46-8, Millipore) in PBST for 60 minutes at RT. Rabbit monoclonal antibody β-III-Tubulin (1:5,000, ab52623, Abcam) was applied overnight (O/N) at 4° C. […] Finally, the immunofluorescence images were detected by using Olympus VS110 slide scanner microscope. […]

5-HT1A receptor = target: T1, 5-HT1A receptor (Homo sapiens, UniProt P08908); assay: 5-HT1A receptor radioligand competition assay (SPA); assay type: binding
T1 construct: purchased Perkin Elmer 6110501400UA
T1 sequence (P08908 1-422): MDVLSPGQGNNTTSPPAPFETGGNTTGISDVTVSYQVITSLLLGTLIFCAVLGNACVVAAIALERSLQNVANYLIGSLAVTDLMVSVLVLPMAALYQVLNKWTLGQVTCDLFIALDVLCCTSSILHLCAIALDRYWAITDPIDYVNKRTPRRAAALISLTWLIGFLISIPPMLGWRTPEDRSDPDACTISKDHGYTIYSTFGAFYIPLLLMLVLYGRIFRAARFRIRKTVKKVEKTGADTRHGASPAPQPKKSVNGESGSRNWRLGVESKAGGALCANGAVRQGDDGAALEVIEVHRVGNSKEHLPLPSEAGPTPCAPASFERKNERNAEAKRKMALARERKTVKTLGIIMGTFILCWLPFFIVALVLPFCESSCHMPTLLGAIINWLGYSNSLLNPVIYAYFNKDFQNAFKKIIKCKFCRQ

5-HT2A receptor = 5-HT2A receptor (Homo sapiens, UniProt P28223); assay: 5-HT2A receptor radioligand competition assay (SPA)
Chain of 5-HT2A receptor (P28223 whole entry): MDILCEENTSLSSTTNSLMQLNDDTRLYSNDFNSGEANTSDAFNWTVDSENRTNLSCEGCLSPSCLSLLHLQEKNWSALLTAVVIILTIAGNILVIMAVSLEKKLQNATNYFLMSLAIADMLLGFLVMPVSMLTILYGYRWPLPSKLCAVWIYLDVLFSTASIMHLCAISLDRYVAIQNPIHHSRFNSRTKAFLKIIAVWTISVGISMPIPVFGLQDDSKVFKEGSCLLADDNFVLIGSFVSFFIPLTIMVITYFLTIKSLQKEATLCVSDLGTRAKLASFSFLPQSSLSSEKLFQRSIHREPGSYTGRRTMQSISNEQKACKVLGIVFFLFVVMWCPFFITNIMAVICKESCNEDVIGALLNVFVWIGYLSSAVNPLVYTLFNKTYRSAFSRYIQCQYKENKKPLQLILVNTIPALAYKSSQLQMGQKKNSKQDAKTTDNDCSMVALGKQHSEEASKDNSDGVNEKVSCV

Compound | neurite outgrowth (β-III-tubulin immunofluorescence) compared to negative control [1] | Ki (5-HT1A receptor) [nM] | Ki (5-HT2A receptor) [nM]
CC(C)Cc1ccc(C(C)C(=O)O)cc1 (stereo not drawn) [ibuprofen, reference compound] | strong signs of neurite outgrowth |  | 
CC(Cc1ccc2c(c1)OCO2)N(C)CCc1c[nH]c2ccccc12 (stereo not drawn) [A(XXXII)] | strong signs of neurite outgrowth | 465 | 465
CC(Cc1ccc2c(c1)OCO2)NCCc1c[nH]c2ccccc12 (stereo not drawn) [A(XXXI)] | strong signs of neurite outgrowth |  | 
C[C@@H](N)[C@H]1CC[C@H](C(=O)Nc2ccncc2)CC1 [Y-27632, reference compound] | strong signs of neurite outgrowth |  | 
